Reference: patent publication US5087616A, “Cytotoxic drug conjugates and their delivery to tumor cells” (Battelle Memorial Institute, priority 1986, dated 1992)

Columns and labels:
[1] = tested on: A431 tumors; assay: In vivo test of Conjugate VIII, A431 tumors in nude mice; conditions: for Initial Surface of the Tumor (A): before treatment; for Final Surface of the tumor (B): a week after last injection; for Tumor weight: tumors dissected at end of experiment
Description: In the prior art, up to 10 mg/kg doses have been used in mice (S. Schwarz, et al., 1975, Cancer Chem. Rep., 6, 2, 107-114). The drug was injected either directly in the tumor or in the caudal vein 4 times at 3 days intervals. The measures were taken a week after the last injection.

[2] = tested on: A431 malignant cells; assay: Inhibition of cellular protein synthesis (35S methionine incorporation), A431; assay type: cell-based; conditions: Homo sapiens, A-431, 48 h, read-out: % of protein Synthesis Inhibition
Description: (§1) The effect of these drugs was evaluated by the degree of inhibition of cellular protein synthesis. For this, we measured the level of incorporation of 35S methionine NEN) into newly synthesized proteins after a 48 hrs exposure to different concentrations of the drugs.
(§2) Cells were plated on 1.5 cm Petri dishes at 50 percent to 60 percent of confluence before the addition of the toxin. […] Cell death consecutive to this addition was measured as follows: the cells were exposed for 1 hour at 37° C. in 500 μl DMEM low methionine medium (GIBCO) containing radioactive ^35 S met. The medium was then removed and the dishes were washed with PBS 9137 mM NaCl, […], […], 8.1 mM Na2 HPO4, 1.5 mM KH2 PO4, 0.9 mM CaCl2, 0.5 mM MgCl2, pH 7.2). These solutions were stored for beta counting. The cells were lysed with 1 ml 0.1 N NaOH and placed in a tube with 500 μl Trichloroacetic acid (TCA) 10 percent to precipitate the proteins. This mixture was filtered on GF/A filters (Whatman) to eliminate unreacted ^35 S-met. The filters were washed twice with 1 ml of 10 percent TCA and once with 100 percent ethanol. The filters were dried at 80° C. for 2 hours and subjected to beta counting in Econofluor (NEN) scintillation medium.

[3] = tested on: A431 tumors; assay: In vivo test of Conjugate IX, A431 tumors in nude mice; conditions: 2 mg/kg daunomycin every 3 days over 9 days, caudal vein
Text: The in vivo tests reported in Example 8 were repeated using Conjugate IX.

[4] = tested on: A431 squamous carcinoma cells; assay: Comparative cytotoxic effects of free and conjugated daunomycin, Trypan Blue exclusion; assay type: cell-based, human; conditions: A431, 1 μg/ml daunomycin or equivalent in conjugate, 48 hours
Description: All cells were maintained in Dulbecco's Modified Medium (DMEM), 10 percent foetal calf serum (FSC) (GIBCO), 2 percent penicillin-streptomycin (Gibco) and 1 percent fungizone (GIBCO) in 5 percent CO2. They were plated at 50 to 60 percent confluence 24 hours before the addition of the toxin. […] Four volumes of 0.2 percent (w/v) Trypan Blue in water was freshly mixed with 1 volume of a saline solution 4.25 percent (w/v) of NaCl in water. One volume of this solution was mixed with 1 volume of PBS on the cell monolayer or to 1 volume of cell suspension in PBS. Observation and scoring took place 48 hours after addition of the toxin (see FIG. 2a and 2b).

[5] = tested on: mixed culture of A431 and WI38 cells; assay: Effect on mixed cultures of tumor (A431) and normal (WI38) cells; assay type: cell-based; conditions: 0.1 μg/ml (or equivalent free daunomycin), after 15 days
Description: Cells were maintained as described in Example 4. The WI38 fibroblasts were first plated and the A431 squamous carcinoma cells were plated the next day. […]

[6] = tested on: WI38 (control) cells; assay: Inhibition of cellular protein synthesis (35S methionine incorporation), WI38; assay type: cell-based; conditions: Homo sapiens, WI-38, 48 h
Description: as §1, §2

[7] = tested on: A431 squamous carcinoma cells; assay: Internalization of 125I-labelled EGF and Conjugate VIII in A431 cells; assay type: cell-based, human; conditions: A431, 6 hrs at 37° C.
Description: (§3) The Conjugate VIII, radiolabeled with ^125 I on the EGF, was incubated with confluent cell cultures of A431 and WI38 cells for 6 hrs at 37° C. in solution A (4 parts DMEM and 1 part of 50 mM Tris, 100 mM NaCl and 0.1 percent BSA adjusted to pH 7.4). The cells were then washed four times with ice-cold PBS+1 mM CaCl2 and 1 mM MgCl2. Fifty percent trichloroacetic acid was added in a proportion of 1:5 to the pooled solution A and PBS, and the mixture was counted on a gamma counter. The cell membrane was destablized by treatment on ice with 200 mM acetic acid and 150 mM NaCl (solution B) for 6 minutes. The solution B was then removed and the cells washed twice with solution B. These pooled B solutions were assayed for ^125 I. This treatment releases the […] to the cell surface. The cells were then completely dissolved in 0.2 N NaOH. The radioactivity found there represented the internalized Conjugate VIII. In control experiments, using free EGF ^125 I, a proportion of the EGF is recycled to the medium, therefore lowering the intracellular EGF. The results on the internalization of ^125 I labelled EGF and Conjugate VIII in WI38 and A431 cell cultures are given in the following Table in terms of counts per min (background 30 cpm) for successively: EGF not integrated in the cell, EGF bound to the membrane, and EGF in the intra-cellular compartment. The percent of total cpm is given in brackets.

[8] = tested on: WI38 fibroblasts; assay: Internalization of 125I-labelled EGF and Conjugate VIII in WI38 cells; assay type: cell-based; conditions: WI38, 6 hrs at 37° C.
Description: as §3

[9] = I.T., 0.1 mg/kg daunomycin 4 times at 3 days intervals

COc1cccc2c1C(=O)c1c(O)c3c(c(O)c1C2=O)C[C@@](O)(C(C)=O)C[C@@H]3O[C@H]1C[C@H](N)[C@H](O)[C@H](C)O1 [Daunomycin, daunomycin]
Initial Surface of the Tumor (A) ([1]; I.T. (intratumor)): 9
Growth coefficient (B/A) [1, 9]: 18.7
Final Surface of the tumor (B) [1, 9]: 170
Tumor weight ([1]; I.T.): 1.178 g
Initial Surface of the Tumor (A) ([1]; I.V. (caudal vein)): 30.5
Final Surface of the tumor (B) ([1]; I.V., 0.1 mg/kg daunomycin 4 times at 3 days intervals): 500
Tumor weight ([1]; I.V.): 6.789 g
inhibition at 0.1 µg/mL [2]: 30%
inhibition at 0.5 µg/mL [2]: 68%
inhibition at 1 µg/mL [2]: 97%
Tumor diameter ([3]; day 0): 10 mm
Tumor diameter ([3]; day 4): 12 mm
Tumor diameter ([3]; day 7): 15 mm
Tumor diameter ([3]; day 11): 20 mm
Tumor diameter ([3]; day 14): 21 mm
Cell death by Trypan Blue exclusion [4]: Exclusion of the dye from the cells demonstrates the viability thereof
Cells remaining in mixed culture [5]: all cells, malignant and normal, had died after 15 days
inhibition at 0.1 µg/mL [6]: 10%
inhibition at 0.5 µg/mL [6]: 46%
inhibition at 1 µg/mL [6]: 80%

EGF: Epidermal Growth Factor, a single polypeptide of 53 amino acids (SIGMA)
Intracellular, percent of total cpm [7]: 14%
Membrane, percent of total cpm [7]: 0%
Unbound, percent of total cpm [7]: 86%
Intracellular ([7]; background 30 cpm): 111 cpm
Membrane ([7]; background 30 cpm): 31 cpm
Unbound (EGF not integrated in the cell) ([7]; background 30 cpm): 536 cpm
Intracellular, percent of total cpm [8]: 7%
Membrane bound, percent of total cpm [8]: 0%
Unbound, percent of total cpm [8]: 93%
Intracellular ([8]; background 30 cpm): 67 cpm
Membrane bound ([8]; background 30 cpm): 29 cpm
Unbound (EGF not integrated in the cell) ([8]; background 30 cpm): 530 cpm
Tumor diameter ([3]; day 0): 10 mm
Tumor diameter ([3]; day 4): 13 mm
Tumor diameter ([3]; day 7): 14 mm
Tumor diameter ([3]; day 11): 17 mm
Tumor diameter ([3]; day 14): 17 mm
